Numbers after ± are expanded uncertainties.
Settings: for vapor or sublimation pressure / mass density / kinematic viscosity / speed of sound: Liquid; for vapor or sublimation pressure: Ebulliometric method (Recirculating still); for surface tension liquid-gas: Drop volume; for mass density: Vibrating tube method; for kinematic viscosity / speed of sound: 101.33 kPa; for kinematic viscosity: Capillary tube (Ostwald / Ubbelohde) method; for speed of sound: Sing-around technique in a fixed-path interferometer

For `Cc1ccco1` [2-methylfuran], the “vapor or sublimation pressure” value (308.17 K) was 35.04 ± 0.2 kPa, the “vapor or sublimation pressure” value (310.12 K) was 37.92 ± 0.21 kPa and the surface tension liquid-gas (310.65 K) was 22.71 ± 0.21 mN/m. For the same compound, the mass density (310.65 K, 99 kPa) was 894.953 ± 0.23 kg/m3, the kinematic viscosity (310.65 K) was 3.92e-07 ± 8.5e-09 m2/s and the speed of sound (310.65 K) was 1106.8 ± 1.5 m/s. For the same compound, the “vapor or sublimation pressure” value (312.06 K) was 41.03 ± 0.21 kPa, the surface tension liquid-gas (313.15 K) was 22.37 ± 0.21 mN/m and the mass density (313.15 K, 99 kPa) was 891.871 ± 0.23 kg/m3. The mass density (313.15 K, 100 kPa) was 891.87 ± 0.29 kg/m3, the kinematic viscosity (313.15 K) was 3.83e-07 ± 8.3e-09 m2/s and the speed of sound (313.15 K) was 1095.6 ± 1.5 m/s. It also gave a mass density (313.15 K, 2500 kPa) of 894.72 ± 0.3 kg/m3, a mass density (313.15 K, 5000 kPa) of 897.62 ± 0.3 kg/m3 and a mass density (313.15 K, 7500 kPa) of 900.57 ± 0.31 kg/m3. It also gave a mass density (313.15 K, 10000 kPa) of 903.14 ± 0.32 kg/m3, a mass density (313.15 K, 20000 kPa) of 913.34 ± 0.34 kg/m3 and a mass density (313.15 K, 30000 kPa) of 922.45 ± 0.35 kg/m3. It also gave a mass density (313.15 K, 40000 kPa) of 930.83 ± 0.37 kg/m3, a mass density (313.15 K, 50000 kPa) of 938.5 ± 0.38 kg/m3 and a mass density (313.15 K, 60000 kPa) of 945.71 ± 0.38 kg/m3. The “vapor or sublimation pressure” value (314.02 K) was 44.3 ± 0.21 kPa, the surface tension liquid-gas (315.65 K) was 22.08 ± 0.21 mN/m and the mass density (315.65 K, 99 kPa) was 888.779 ± 0.23 kg/m3. The kinematic viscosity (315.65 K) was 3.74e-07 ± 8.1e-09 m2/s, the speed of sound (315.65 K) was 1084.4 ± 1.5 m/s and the “vapor or sublimation pressure” value (316.08 K) was 47.94 ± 0.21 kPa. For the same compound, the “vapor or sublimation pressure” value (317.22 K) was 50.08 ± 0.21 kPa, the surface tension liquid-gas (318.15 K) was 21.69 ± 0.21 mN/m and the mass density (318.15 K, 99 kPa) was 885.676 ± 0.23 kg/m3. It also gave a mass density (318.15 K, 100 kPa) of 885.68 ± 0.29 kg/m3, a kinematic viscosity (318.15 K) of 3.66e-07 ± 8e-09 m2/s and a speed of sound (318.15 K) of 1073.3 ± 1.5 m/s. It also gave a mass density (318.15 K, 2500 kPa) of 888.8 ± 0.3 kg/m3, a mass density (318.15 K, 5000 kPa) of 891.79 ± 0.31 kg/m3 and a mass density (318.15 K, 7500 kPa) of 894.77 ± 0.31 kg/m3. It also gave a mass density (318.15 K, 10000 kPa) of 897.58 ± 0.32 kg/m3, a mass density (318.15 K, 20000 kPa) of 907.94 ± 0.34 kg/m3 and a mass density (318.15 K, 30000 kPa) of 917.27 ± 0.36 kg/m3. It also gave a mass density (318.15 K, 40000 kPa) of 925.75 ± 0.37 kg/m3, a mass density (318.15 K, 50000 kPa) of 933.61 ± 0.38 kg/m3 and a mass density (318.15 K, 60000 kPa) of 941.15 ± 0.39 kg/m3. The “vapor or sublimation pressure” value (319.29 K) was 54.16 ± 0.21 kPa, the surface tension liquid-gas (320.65 K) was 21.35 ± 0.2 mN/m and the mass density (320.65 K, 99 kPa) was 882.558 ± 0.23 kg/m3. The kinematic viscosity (320.65 K) was 3.58e-07 ± 7.8e-09 m2/s, the speed of sound (320.65 K) was 1062.1 ± 1.5 m/s and the “vapor or sublimation pressure” value (321.15 K) was 58.19 ± 0.21 kPa. The “vapor or sublimation pressure” value (323.05 K) was 62.23 ± 0.21 kPa, the surface tension liquid-gas (323.15 K) was 21 ± 0.2 mN/m and the mass density (323.15 K, 99 kPa) was 879.425 ± 0.23 kg/m3. It also gave a mass density (323.15 K, 100 kPa) of 879.43 ± 0.29 kg/m3, a kinematic viscosity (323.15 K) of 3.5e-07 ± 7.6e-09 m2/s and a speed of sound (323.15 K) of 1051 ± 1.5 m/s. It also gave a mass density (323.15 K, 2500 kPa) of 882.68 ± 0.3 kg/m3, a mass density (323.15 K, 5000 kPa) of 885.8 ± 0.31 kg/m3 and a mass density (323.15 K, 7500 kPa) of 888.76 ± 0.31 kg/m3. For the same compound, the mass density (323.15 K, 10000 kPa) was 891.8 ± 0.32 kg/m3, the mass density (323.15 K, 20000 kPa) was 902.39 ± 0.34 kg/m3 and the mass density (323.15 K, 30000 kPa) was 911.96 ± 0.36 kg/m3. The mass density (323.15 K, 40000 kPa) was 920.89 ± 0.38 kg/m3, the mass density (323.15 K, 50000 kPa) was 929.01 ± 0.39 kg/m3 and the mass density (323.15 K, 60000 kPa) was 936.53 ± 0.4 kg/m3. The “vapor or sublimation pressure” value (325.57 K) was 68.18 ± 0.22 kPa, the surface tension liquid-gas (325.65 K) was 20.7 ± 0.2 mN/m and the mass density (325.65 K, 99 kPa) was 876.278 ± 0.23 kg/m3. The kinematic viscosity (325.65 K) was 3.42e-07 ± 7.5e-09 m2/s, the speed of sound (325.65 K) was 1039.9 ± 1.5 m/s and the “vapor or sublimation pressure” value (327.23 K) was 72.31 ± 0.22 kPa. For the same compound, the surface tension liquid-gas (328.15 K) was 20.46 ± 0.2 mN/m, the mass density (328.15 K, 99 kPa) was 873.118 ± 0.23 kg/m3 and the mass density (328.15 K, 100 kPa) was 873.12 ± 0.29 kg/m3. The kinematic viscosity (328.15 K) was 3.36e-07 ± 7.3e-09 m2/s, the speed of sound (328.15 K) was 1028.8 ± 1.5 m/s and the mass density (328.15 K, 2500 kPa) was 876.29 ± 0.3 kg/m3. For the same compound, the mass density (328.15 K, 5000 kPa) was 879.75 ± 0.31 kg/m3, the mass density (328.15 K, 7500 kPa) was 882.71 ± 0.31 kg/m3 and the mass density (328.15 K, 10000 kPa) was 885.92 ± 0.32 kg/m3. It also gave a mass density (328.15 K, 20000 kPa) of 896.99 ± 0.35 kg/m3, a mass density (328.15 K, 30000 kPa) of 906.92 ± 0.37 kg/m3 and a mass density (328.15 K, 40000 kPa) of 915.88 ± 0.39 kg/m3. The mass density (328.15 K, 50000 kPa) was 924.13 ± 0.4 kg/m3, the mass density (328.15 K, 60000 kPa) was 931.92 ± 0.41 kg/m3 and the “vapor or sublimation pressure” value (329.07 K) was 77.17 ± 0.22 kPa. For the same compound, the surface tension liquid-gas (330.65 K) was 20.08 ± 0.2 mN/m, the mass density (330.65 K, 99 kPa) was 869.944 ± 0.23 kg/m3 and the kinematic viscosity (330.65 K) was 3.28e-07 ± 7.1e-09 m2/s. The speed of sound (330.65 K) was 1017.7 ± 1.5 m/s, the “vapor or sublimation pressure” value (331.13 K) was 82.86 ± 0.22 kPa and the surface tension liquid-gas (333.15 K) was 19.74 ± 0.2 mN/m. The mass density (333.15 K, 99 kPa) was 866.753 ± 0.23 kg/m3, the mass density (333.15 K, 100 kPa) was 866.75 ± 0.29 kg/m3 and the kinematic viscosity (333.15 K) was 3.2e-07 ± 7e-09 m2/s. The speed of sound (333.15 K) was 1006.7 ± 1.5 m/s, the mass density (333.15 K, 2500 kPa) was 870.11 ± 0.3 kg/m3 and the mass density (333.15 K, 5000 kPa) was 873.62 ± 0.31 kg/m3. For the same compound, the mass density (333.15 K, 7500 kPa) was 876.95 ± 0.32 kg/m3, the mass density (333.15 K, 10000 kPa) was 880.01 ± 0.32 kg/m3 and the mass density (333.15 K, 20000 kPa) was 891.39 ± 0.35 kg/m3. It also gave a mass density (333.15 K, 30000 kPa) of 901.64 ± 0.37 kg/m3, a mass density (333.15 K, 40000 kPa) of 910.95 ± 0.39 kg/m3 and a mass density (333.15 K, 50000 kPa) of 919.48 ± 0.41 kg/m3. The mass density (333.15 K, 60000 kPa) was 927.42 ± 0.42 kg/m3, the “vapor or sublimation pressure” value (333.27 K) was 89.15 ± 0.23 kPa and the “vapor or sublimation pressure” value (334.25 K) was 92.22 ± 0.23 kPa. The surface tension liquid-gas (335.65 K) was 19.41 ± 0.19 mN/m, the mass density (335.65 K, 99 kPa) was 863.547 ± 0.23 kg/m3 and the kinematic viscosity (335.65 K) was 3.13e-07 ± 6.8e-09 m2/s. The speed of sound (335.65 K) was 995.68 ± 1.5 m/s, the “vapor or sublimation pressure” value (336.39 K) was 99.03 ± 0.23 kPa and the “vapor or sublimation pressure” value (337.09 K) was 101.33 ± 0.23 kPa. It also gave a surface tension liquid-gas (338.15 K) of 19.09 ± 0.19 mN/m, a mass density (338.15 K, 99 kPa) of 860.327 ± 0.24 kg/m3 and a mass density (338.15 K, 100 kPa) of 860.33 ± 0.29 kg/m3. For the same compound, the kinematic viscosity (338.15 K) was 3.07e-07 ± 6.7e-09 m2/s, the speed of sound (338.15 K) was 984.65 ± 1.5 m/s and the mass density (338.15 K, 2500 kPa) was 863.95 ± 0.3 kg/m3. For the same compound, the mass density (338.15 K, 5000 kPa) was 867.36 ± 0.31 kg/m3, the mass density (338.15 K, 7500 kPa) was 870.91 ± 0.32 kg/m3 and the mass density (338.15 K, 10000 kPa) was 874.16 ± 0.33 kg/m3. It also gave a mass density (338.15 K, 20000 kPa) of 886.03 ± 0.35 kg/m3, a mass density (338.15 K, 30000 kPa) of 896.44 ± 0.38 kg/m3 and a mass density (338.15 K, 40000 kPa) of 905.99 ± 0.4 kg/m3. For the same compound, the mass density (338.15 K, 50000 kPa) was 914.74 ± 0.41 kg/m3 and the mass density (338.15 K, 60000 kPa) was 922.79 ± 0.42 kg/m3.
